25 compounds from ChEMBL document CHEMBL3392963, “Piperazine derivatives: synthesis, inhibition of the Mycobacterium tuberculosis enoyl-acyl carrier protein reductase and SAR studies” (Eur J Med Chem, 2015) can be followed below.

By IC50 is commonly meant the concentration that inhibits the measured activity by half. The term MIC denotes the least concentration at which growth counts as inhibited.

The target of test [1] is T1, Enoyl-[acyl-carrier-protein] reductase [NADH] (Mycobacterium tuberculosis, UniProt P9WGR1).
T1 sequence (P9WGR1 whole entry): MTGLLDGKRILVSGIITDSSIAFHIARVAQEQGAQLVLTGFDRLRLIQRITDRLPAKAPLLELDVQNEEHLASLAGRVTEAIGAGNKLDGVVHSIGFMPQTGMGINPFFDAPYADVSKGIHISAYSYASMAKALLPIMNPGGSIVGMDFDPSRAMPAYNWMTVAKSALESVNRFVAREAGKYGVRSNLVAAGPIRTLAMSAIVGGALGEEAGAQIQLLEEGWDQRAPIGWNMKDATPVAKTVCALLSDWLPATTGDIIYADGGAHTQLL
In words: Inhibition of Mycobacterium tuberculosis recombinant InhA assessed as NADH oxidation to NAD+ using 2-trans-dodecenoyl-CoA substrate by UV/visible spectrophotometry.

For test [2], the system named is Mycobacterium tuberculosis. In words: Antimycobacterial activity against Mycobacterium tuberculosis H37Rv assessed as inhibition of mycobacterial growth after 7 days by REMA method. Particulars: 168 h.
In test [3] the target is T2, Enoyl-[acyl-carrier-protein] reductase [NADH] (Mycobacterium tuberculosis) (UniProt P9WGR1).
T2 sequence (whole entry): T1 sequence (P9WGR1 whole entry)
Description: Inhibition of Mycobacterium tuberculosis recombinant InhA assessed as NADH oxidation to NAD+ at 0.2 uM using 2-trans-dodecenoyl-CoA substrate measured up to 30 mins by UV/visible spectrophotometry

Test [4] has as its target T2, Enoyl-[acyl-carrier-protein] reductase [NADH] (Mycobacterium tuberculosis). The source holds these as a separate data set.
Description: Uncompetitive inhibition of Mycobacterium tuberculosis recombinant InhA assessed as inhibitory dissociation constant for the enzyme-substrate-inhibitor complex by measuring NADH oxidation to NAD+ using fixed 2-trans-dodecenoyl-CoA substrate and varying NADH levels by UV/visible spectrophotometry
Test [5] shares this target. This is another data set of the same source.
Description: Non-competitive inhibition of Mycobacterium tuberculosis recombinant InhA assessed as inhibitory dissociation constant for the enzyme-inhibitor complex by measuring NADH oxidation to NAD+ using varying 2-trans-dodecenoyl-CoA substrate and fixed NADH levels by UV/visible spectrophotometry
The target is the same in test [6]. The source holds these as a separate data set.
Description: Non-competitive inhibition of Mycobacterium tuberculosis recombinant InhA assessed as inhibitory dissociation constant for the enzyme-substrate-inhibitor complex by measuring NADH oxidation to NAD+ using varying 2-trans-dodecenoyl-CoA substrate and fixed NADH levels by UV/visible spectrophotometry
For test [7] the target is unchanged. This is another data set of the same source.
Description: Competitive inhibition of Mycobacterium tuberculosis recombinant InhA assessed as inhibitory dissociation constant for the enzyme-inhibitor complex by measuring NADH oxidation to NAD+ using varying 2-trans-dodecenoyl-CoA substrate and fixed NADH levels by UV/visible spectrophotometry

Values after ≈ are worked out from the molar mass of the structure shown. Active and inactive are the calls of the source. No cut-off for these calls is given here. Some results are limits rather than exact numbers.

For the compound `Cc1ccc(C(=O)N2CCN(C3c4ccccc4-c4ccccc43)CC2)cc1`, the IC50 in test [1] worked out at 0.222 µM. In addition, the MIC in test [2] was 67.8 µM (≈ 25 µg/mL).
As to `O=C(c1cc(F)ccc1F)N1CCN(C2c3ccccc3-c3ccccc32)CC1`, the IC50 in test [1] amounted to 1.57 µM. Moreover, the MIC in test [2] was greater than 15.3 µM. For the same compound, in test [3], the TDI result was “inactive”. In addition, the Kii in test [4] came to 1.28 µM; in test [6], 3.25 µM. Besides, the Kis in test [5] came out at 0.788 µM.
`Cc1ccccc1S(=O)(=O)N1CCN(C2c3ccccc3-c3ccccc32)CC1`: in test [1], the IC50 is greater than 50 µM.
`O=C(c1ccccc1F)N1CCN(C2c3ccccc3-c3ccccc32)CC1`: in test [1], the IC50 amounted to 0.361 µM. The MIC in test [2] is greater than 16.1 µM. The TDI entry in test [3] is “inactive”. For the same compound, the Kii in test [4] was 0.332 µM; in test [6] it was 0.66 µM. The same compound came in with a Kis in test [5] of 0.149 µM.
As to `O=C(c1cc(F)ccc1F)N1CCN(C(c2ccccc2)c2ccccc2)CC1`, the IC50 in test [1] was greater than 50 µM.
Still for that read-out and setting: to `c1ccc(CN2CCN(C3c4ccccc4-c4ccccc43)CC2)cc1` belongs greater than 50 µM.
As for `O=C(c1cccc(F)c1)N1CCN(C2c3ccccc3-c3ccccc32)CC1`, the IC50 in test [1] stood at 0.24 µM. For the same compound, in test [2], the MIC was greater than 16.1 µM. For the same compound, the TDI entry in test [3] is “inactive”. This compound also returned a Kii in test [4] of 0.147 µM. In test [7], this compound displayed a Kis of 0.118 µM.
Regarding `O=C(c1ccc(F)cc1)N1CCN(C(c2ccccc2)c2ccccc2)CC1`, the IC50 in test [1] was greater than 50 µM.
Still for that read-out and setting: to `O=C(/C=C/c1ccccc1)N1CCN(C2c3ccccc3-c3ccccc32)CC1` belongs greater than 50 µM.
As to `O=C(c1ccc(Cl)cc1)N1CCN(C(c2ccccc2)c2ccccc2)CC1`, the IC50 in test [1] is greater than 50 µM.
As to `COc1ccc(C(=O)N2CCN(C(c3ccccc3)c3ccccc3)CC2)cc1`, the 50% inhibitory concentration (IC50) in test [1] is greater than 50 µM.
Turning to `O=C(CN1CCN(C2c3ccccc3-c3ccccc32)CC1)Nc1ccccc1`, in test [1], the IC50 is greater than 50 µM.
Regarding `O=C(c1ccc(F)cc1)N1CCN(C2c3ccccc3-c3ccccc32)CC1`, the IC50 in test [1] was 0.397 µM. Moreover, in test [2], the MIC worked out at 67.8 µM (≈ 25.3 µg/mL). In addition, the TDI result in test [3] was “inactive”. This compound returned a Kii in test [4] of 0.348 µM. Also, in test [7], the Kis amounted to 0.338 µM.
For `O=C(c1ccc([N+](=O)[O-])cc1)N1CCN(C2c3ccccc3-c3ccccc32)CC1`, the IC50 in test [1] was greater than 50 µM.
Consider `O=S(=O)(c1ccccc1)N1CCN(C(c2ccccc2)c2ccccc2)CC1`, for which, in test [1], the half-maximal inhibitory concentration (IC50) was greater than 50 µM.
For the compound `O=C(c1ccncc1)N1CCN(C2c3ccccc3-c3ccccc32)CC1`, the IC50 in test [1] is 9.77 µM.
Regarding `O=C(c1ccccc1)N1CCN(C2c3ccccc3-c3ccccc32)CC1`, in test [1], the IC50 is 0.183 µM. The MIC in test [2] was greater than 35.2 µM.
Consider `O=C(c1ccc(Cl)cc1)N1CCN(C2c3ccccc3-c3ccccc32)CC1`, for which the IC50 in test [1] worked out at 1.69 µM. The TDI result in test [3] was “inactive”. Besides, the Kii came out at 1.12 µM in test [4] and 2 µM in test [6]. This compound showed a Kis in test [5] of 2.77 µM.
On to `COc1ccc(C(=O)N2CCN(C3c4ccccc4-c4ccccc43)CC2)cc1`, for which the IC50 in test [1] was 2.9 µM. In test [3], the TDI result was “inactive”. Moreover, the Kii in test [4] was 1.95 µM; in test [6], 7.22 µM. In addition, in test [5], the Kis worked out at 1.6 µM.
For `O=C(/C=C/c1ccccc1)N1CCN(C(c2ccccc2)c2ccccc2)CC1`, in test [1], the IC50 was greater than 50 µM.
Consider `O=C(c1ccccc1)N1CCN(C(c2ccccc2)c2ccccc2)CC1`, for which, in test [1], the IC50 came out at 16 µM.
In the case of `Cc1ccccc1C(=O)N1CCN(C2c3ccccc3-c3ccccc32)CC1`, the IC50 in test [1] came to 5.99 µM.
Consider `Cc1ccc(C(=O)N2CCN(C(c3ccccc3)c3ccccc3)CC2)cc1`, for which the IC50 in test [1] stood at 7.83 µM.
Take `O=S(=O)(c1ccccc1)N1CCN(C2c3ccccc3-c3ccccc32)CC1`: the concentration for half-maximal inhibition (IC50) in test [1] was found to be 20 µM.
Turning to `Cc1cccc(C(=O)N2CCN(C3c4ccccc4-c4ccccc43)CC2)c1`, the concentration for half-maximal inhibition (IC50) in test [1] came to 0.25 µM. In test [2], the MIC was greater than 16.2 µM. Also, the TDI result in test [3] was “inactive”. Moreover, the Kii stood at 0.185 µM in test [4] and 0.348 µM in test [6]. In test [5], this compound showed a Kis of 0.162 µM.
